The results in this text go back to patent publication US11655235B2, “Pyrrolidine and piperidine compounds” (YUHAN CORPORATION, priority 2019, dated 2023).

Like-named read-outs stand apart in the source and are kept apart here. Some results are limits rather than exact numbers.

What all share (format): biochemical
The target in assay [1] is T1, Recombinant human FAP (Homo sapiens, UniProt Q12884).
T1 construct: purchased R&D systems
T1 sequence (Q12884 1-760): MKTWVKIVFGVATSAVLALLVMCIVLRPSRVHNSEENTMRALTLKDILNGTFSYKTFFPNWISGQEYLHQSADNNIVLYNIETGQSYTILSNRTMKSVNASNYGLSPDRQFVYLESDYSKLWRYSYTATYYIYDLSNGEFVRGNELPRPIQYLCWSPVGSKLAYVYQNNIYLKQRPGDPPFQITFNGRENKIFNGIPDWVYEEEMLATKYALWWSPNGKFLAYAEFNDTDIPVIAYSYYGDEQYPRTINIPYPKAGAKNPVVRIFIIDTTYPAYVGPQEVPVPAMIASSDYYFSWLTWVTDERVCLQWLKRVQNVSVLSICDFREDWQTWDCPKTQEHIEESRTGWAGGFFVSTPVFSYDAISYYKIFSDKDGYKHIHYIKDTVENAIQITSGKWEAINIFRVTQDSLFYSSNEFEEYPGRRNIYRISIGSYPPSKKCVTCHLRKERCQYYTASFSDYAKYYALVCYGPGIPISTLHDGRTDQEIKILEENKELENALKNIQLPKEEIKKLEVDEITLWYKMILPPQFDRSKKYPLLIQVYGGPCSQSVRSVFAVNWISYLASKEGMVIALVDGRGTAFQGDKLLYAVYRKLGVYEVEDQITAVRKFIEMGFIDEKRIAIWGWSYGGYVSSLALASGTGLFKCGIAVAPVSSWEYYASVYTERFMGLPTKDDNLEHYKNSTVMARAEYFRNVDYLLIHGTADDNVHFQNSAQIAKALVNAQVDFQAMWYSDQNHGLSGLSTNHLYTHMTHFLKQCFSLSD
As to the kind of experiment: FAP inhibition, fluorogenic substrate Z-Gly-Pro-AMC. The method in brief:
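Recombinant human FAP, 10 ng per reaction, in 50 mM Tris pH 7.5 with 1 M NaCl and 1 mg/ml BSA at 25° C; substrate Z-Gly-Pro-AMC, ≤0.1% DMSO. AMC fluorescence read at ex 380/em 460 nm; % signal-rate decrease vs no-inhibitor control, 8-point curves fitted to a four-parameter logistic for IC50.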

Assay [2] has as its target T2, recombinant human DPP7 (Homo sapiens, UniProt Q9UHL4).
T2 construct: purchased R&D Systems
Nature of the assay: DPP7 inhibition, fluorogenic substrate Lys-Pro-AMC. The method in brief:
(§1)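 Enzyme per reaction: 50 ng DPP9, 20 ng DPP8, 10 ng each DPP7 and PREP. Compounds were serially diluted (8 points, up to 0.5% DMSO) and incubated at 25 °C.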

Assay [3] addresses T3, recombinant human DPP8 (Homo sapiens, UniProt Q6V1X1).
T3 construct: purchased PBS Bioscience
As to the kind of experiment: DPP8 inhibition, fluorogenic substrate Z-Ala-Pro-AMC. In a few lines:
as §1

In assay [4] the target is T4, recombinant human DPP9 (Homo sapiens, UniProt Q86TI2).
T4 construct: purchased R&D Systems
T4 sequence (Q86TI2 whole entry): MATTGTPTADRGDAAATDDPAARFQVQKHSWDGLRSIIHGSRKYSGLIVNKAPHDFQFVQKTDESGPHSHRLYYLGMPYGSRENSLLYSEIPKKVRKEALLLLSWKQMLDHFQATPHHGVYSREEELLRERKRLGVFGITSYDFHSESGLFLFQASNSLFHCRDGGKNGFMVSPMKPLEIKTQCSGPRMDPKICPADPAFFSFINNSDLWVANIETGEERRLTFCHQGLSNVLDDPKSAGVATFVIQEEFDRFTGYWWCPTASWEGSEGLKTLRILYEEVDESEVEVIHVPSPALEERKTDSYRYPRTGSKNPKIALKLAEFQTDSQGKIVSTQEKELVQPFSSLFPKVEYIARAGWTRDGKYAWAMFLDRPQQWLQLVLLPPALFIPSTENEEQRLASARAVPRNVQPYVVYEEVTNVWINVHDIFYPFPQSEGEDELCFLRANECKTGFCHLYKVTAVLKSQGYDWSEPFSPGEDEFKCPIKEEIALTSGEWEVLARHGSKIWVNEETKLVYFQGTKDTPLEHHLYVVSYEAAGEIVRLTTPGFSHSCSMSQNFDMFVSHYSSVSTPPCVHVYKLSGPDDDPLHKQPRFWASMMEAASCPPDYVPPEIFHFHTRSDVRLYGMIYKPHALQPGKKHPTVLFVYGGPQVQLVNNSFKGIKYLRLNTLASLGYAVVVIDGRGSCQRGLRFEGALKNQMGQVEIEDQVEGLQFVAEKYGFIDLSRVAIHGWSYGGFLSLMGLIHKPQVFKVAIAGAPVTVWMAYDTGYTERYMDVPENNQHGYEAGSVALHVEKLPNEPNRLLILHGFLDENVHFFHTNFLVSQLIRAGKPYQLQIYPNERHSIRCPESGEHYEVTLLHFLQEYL
Nature of the assay: DPP9 inhibition, fluorogenic substrate H-Gly-Pro-AMC. The method in brief: as §1

Assay [5] has as its target T5, recombinant human PREP (Homo sapiens, UniProt P48147).
T5 construct: purchased R&D System
T5 sequence (P48147 1-710): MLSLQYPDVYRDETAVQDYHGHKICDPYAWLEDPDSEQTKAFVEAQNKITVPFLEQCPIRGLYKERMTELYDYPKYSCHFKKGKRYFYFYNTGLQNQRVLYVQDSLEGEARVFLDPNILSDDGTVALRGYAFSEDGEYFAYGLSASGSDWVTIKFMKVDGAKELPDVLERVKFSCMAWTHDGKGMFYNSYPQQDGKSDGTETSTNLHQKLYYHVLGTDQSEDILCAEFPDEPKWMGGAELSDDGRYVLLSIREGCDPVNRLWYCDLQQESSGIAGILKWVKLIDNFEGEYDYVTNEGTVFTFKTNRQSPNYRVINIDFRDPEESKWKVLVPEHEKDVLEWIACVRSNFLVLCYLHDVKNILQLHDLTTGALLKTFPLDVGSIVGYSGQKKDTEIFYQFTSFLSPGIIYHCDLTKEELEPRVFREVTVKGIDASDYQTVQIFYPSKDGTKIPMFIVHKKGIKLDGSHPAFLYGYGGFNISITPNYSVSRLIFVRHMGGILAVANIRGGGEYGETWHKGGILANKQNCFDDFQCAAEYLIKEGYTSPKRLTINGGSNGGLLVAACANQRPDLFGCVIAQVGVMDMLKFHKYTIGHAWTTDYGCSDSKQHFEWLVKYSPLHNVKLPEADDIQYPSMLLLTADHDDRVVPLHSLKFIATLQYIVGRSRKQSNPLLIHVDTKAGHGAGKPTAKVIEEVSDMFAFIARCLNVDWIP
Nature of the assay: PREP inhibition, fluorogenic substrate Z-Gly-Pro-AMC. As to conditions: Inhibitory Activity (IC50, nM) PREP. The method in brief:
as §1

Assay [6] addresses DPP4 (Homo sapiens, UniProt P27487). As to the kind of experiment: DPP4 inhibition, fluorogenic substrate H-Gly-Pro-AMC. As to conditions: for inhibition at 1 µM: read-out: hDPP4 inhibition % at 1 μM. Details: purchased R&D Systems.
Where [7] appears, read: 25° C., Z-Gly-Pro-AMC substrate.
The mark [8] stands for this setting: 25° C., Z-Ala-Pro-AMC substrate.
Where [9] appears, read: 25° C., H-Gly-Pro-AMC substrate.
Setting [10] is: recombinant human FAP, substrate Z-Gly-Pro-AMC.

Chain of DPP4 (P27487 whole entry): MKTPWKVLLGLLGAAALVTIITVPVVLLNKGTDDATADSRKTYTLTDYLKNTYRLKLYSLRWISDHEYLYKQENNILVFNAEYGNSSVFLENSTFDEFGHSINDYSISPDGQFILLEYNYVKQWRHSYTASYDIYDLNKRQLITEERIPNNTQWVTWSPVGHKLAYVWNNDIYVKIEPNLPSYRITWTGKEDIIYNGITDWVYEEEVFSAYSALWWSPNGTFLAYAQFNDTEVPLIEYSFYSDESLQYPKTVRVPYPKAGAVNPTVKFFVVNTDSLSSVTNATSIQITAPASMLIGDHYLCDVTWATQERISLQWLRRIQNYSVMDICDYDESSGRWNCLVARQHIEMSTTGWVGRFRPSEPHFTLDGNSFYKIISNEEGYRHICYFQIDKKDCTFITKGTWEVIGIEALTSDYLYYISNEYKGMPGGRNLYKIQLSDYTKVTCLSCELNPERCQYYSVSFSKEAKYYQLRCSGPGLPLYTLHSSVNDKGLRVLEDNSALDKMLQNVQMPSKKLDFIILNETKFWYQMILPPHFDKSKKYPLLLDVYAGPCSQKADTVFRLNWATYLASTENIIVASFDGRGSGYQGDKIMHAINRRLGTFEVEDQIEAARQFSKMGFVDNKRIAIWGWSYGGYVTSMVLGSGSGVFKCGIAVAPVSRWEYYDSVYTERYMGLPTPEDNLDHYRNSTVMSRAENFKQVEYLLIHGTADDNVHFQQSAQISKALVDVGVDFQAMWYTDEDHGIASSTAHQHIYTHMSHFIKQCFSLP
T3 sequence (Q6V1X1 whole entry): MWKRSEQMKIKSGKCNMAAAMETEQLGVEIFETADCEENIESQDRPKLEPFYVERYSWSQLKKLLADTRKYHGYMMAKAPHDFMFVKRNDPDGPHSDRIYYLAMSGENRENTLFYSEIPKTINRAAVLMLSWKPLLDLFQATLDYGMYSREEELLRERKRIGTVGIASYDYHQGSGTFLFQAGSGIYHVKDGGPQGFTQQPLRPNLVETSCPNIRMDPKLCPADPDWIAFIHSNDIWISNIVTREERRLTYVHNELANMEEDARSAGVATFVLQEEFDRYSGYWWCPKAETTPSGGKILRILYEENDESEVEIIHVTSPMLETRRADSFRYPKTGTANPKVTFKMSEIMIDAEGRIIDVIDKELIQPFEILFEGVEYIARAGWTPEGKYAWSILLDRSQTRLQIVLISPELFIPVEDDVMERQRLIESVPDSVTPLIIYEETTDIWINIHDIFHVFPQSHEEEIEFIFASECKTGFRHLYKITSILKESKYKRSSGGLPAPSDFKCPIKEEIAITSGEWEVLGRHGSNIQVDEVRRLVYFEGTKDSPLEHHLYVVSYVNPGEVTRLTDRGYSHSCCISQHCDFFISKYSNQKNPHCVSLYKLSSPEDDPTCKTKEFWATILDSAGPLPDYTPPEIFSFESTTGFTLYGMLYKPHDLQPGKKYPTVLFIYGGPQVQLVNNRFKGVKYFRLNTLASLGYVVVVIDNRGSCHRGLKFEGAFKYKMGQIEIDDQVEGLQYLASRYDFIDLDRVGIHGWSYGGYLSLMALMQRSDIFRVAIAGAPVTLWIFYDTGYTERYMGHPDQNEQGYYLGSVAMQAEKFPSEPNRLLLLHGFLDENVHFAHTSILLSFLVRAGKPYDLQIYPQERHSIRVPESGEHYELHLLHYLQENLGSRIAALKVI

The IC50 is the midpoint of a concentration-inhibition curve. As for `N#C[C@@H]1CCCN1C(=O)CN1CC[C@H](Nc2cncc3ccccc23)C1` [Example 19, (S)-1-(2-((S)-3-(isoquinolin-4-ylamino)pyrrolidin-1-yl)acetyl)pyrrolidine-2-carbonitrile], the IC50 is 0.00574 µM in assay [1] (setting [7]); 0.206 µM in assay [2]; 45.2 µM in assay [3] (setting [8]); 44 µM in assay [4] (setting [9]); 11800 nM in assay [5] (setting [7]); over 1 µM in assay [6] (setting [9]).

Consider `COc1ccc2nccc(O[C@H]3CCN(CC(=O)N4CCC[C@H]4C#N)C3)c2c1` [Example 84, (S)-1-(2-((S)-3-((6-methoxyquinolin-4-yl)oxy)pyrrolidin-1-yl)acetyl)pyrrolidine-2-carbonitrile], for which the IC50 is 0.001 µM in assay [1] (setting [7]); 9.46 µM in assay [2]; over 100 µM in assay [3] (setting [8]); over 100 µM in assay [4] (setting [9]); 5400 nM in assay [5] (setting [7]); over 1 µM in assay [6] (setting [9]).

Regarding `N#C[C@@H]1CC(F)(F)CN1C(=O)CN1CC[C@H](Nc2ccc(-c3ccccc3)cc2)C1` [Example 14, (S)-1-(2-((S)-3-([1,1′-biphenyl]-4-ylamino)pyrrolidin-1-yl)acetyl)-4,4-difluoropyrrolidine-2-carbonitrile], the IC50 in assay [1] (setting [7]) is 0.0187 µM; in assay [2], 0.127 µM; in assay [3] (setting [8]) it was 0.676 µM; in assay [4] (setting [9]) it was 11.1 µM; in assay [5] (setting [7]), over 100000 nM; in assay [6] (setting [9]) it was over 1 µM.

For the molecule `N#C[C@@H]1CC(F)(F)CN1C(=O)CN1CC[C@H](Oc2cccc3ncccc23)C1` [Example 105, (S)-4,4-difluoro-1-(2-((S)-3-(quinolin-5-yloxy)pyrrolidin-1-yl)acetyl)pyrrolidine-2-carbonitrile], the half-maximal inhibitory concentration (IC50) in assay [1] (setting [7]) was 0.00121 µM; in assay [2], 0.0635 µM; in assay [3] (setting [8]), 11.8 µM; in assay [4] (setting [9]), 12.5 µM; in assay [5] (setting [7]) it was 5230 nM; in assay [6] (setting [9]), over 1 µM.

As usually defined, the inhibition is the drop in the measured response relative to a control, in per cent. With `N#C[C@@H]1CCCN1C(=O)CN1CC[C@H](NC(=O)c2coc3cccc(O)c23)C1` [Example 48, N—((S)-1-(2-((S)-2-cyanopyrrolidin-1-yl)-2-oxoethyl)pyrrolidin-3-yl)-4-hydroxybenzofuran-3-carboxamide], the half-inhibitory concentration (IC50) was 0.00223 µM in assay [1] (setting [7]); 0.762 µM in assay [2]; 12 µM in assay [3] (setting [8]); over 100 µM in assay [4] (setting [9]); 6750 nM in assay [5] (setting [7]). Besides, the inhibition at 1 µM in assay [6] came to 3.6%.

Take `N#Cc1ccc2c(N[C@H]3CCN(CC(=O)N4C[C@@H](F)C[C@H]4C#N)C3)cccc2n1` [Example 252, 5-[[(3S)-1-[2-oxo-2-[(2S,4S)-2-cyano-4-fluoro-pyrrolidin-1-yl]ethyl]pyrrolidin-3-yl]amino]quinoline-2-carbonitrile]: the half-inhibitory concentration (IC50) in assay [1] (setting [10]) came to 0.0008 µM; in assay [2] (recombinant human DPP7), 0.308 µM; in assay [3] (recombinant human DPP8), 2.48 µM; in assay [4] (recombinant human DPP9), 4.93 µM; in assay [5] (recombinant human PREP), 3320 nM; in assay [6] (recombinant human DPP4), 1.63 µM.

Take `COc1ccc2c(OC3CCN(CC(=O)N4C[C@@H](F)C[C@H]4C#N)CC3)ccnc2c1` [Example 129, (2S,4S)-4-fluoro-1-(2-(4-((7-methoxyquinolin-4-yl)oxy)piperidin-1-yl)acetyl)pyrrolidine-2-carbonitrile]: the IC50 in assay [1] (setting [7]) is 0.00266 µM; in assay [2] it was 0.642 µM; in assay [3] (setting [8]), 9.84 µM; in assay [4] (setting [9]), 4.85 µM; in assay [5] (setting [7]) it was 161 nM; in assay [6] (setting [9]), over 10 µM.

In the case of `N#C[C@@H]1C[C@H](F)CN1C(=O)CN1CCC(Oc2ccnc3ccc(Cl)cc23)CC1` [Example 127, (2S,4S)-1-(2-(4-((6-chloroquinolin-4-yl)oxy)piperidin-1-yl)acetyl)-4-fluoropyrrolidine-2-carbonitrile], the concentration for half-maximal inhibition (IC50) in assay [1] (setting [7]) is 0.00065 µM; in assay [2], 9.23 µM; in assay [3] (setting [8]), 8.73 µM; in assay [4] (setting [9]), 23.7 µM; in assay [5] (setting [7]), 621 nM; in assay [6] (setting [9]), over 10 µM.

As for `N#C[C@@H]1C[C@H](F)CN1C(=O)CN1CCC(Nc2ccnc3ccc(F)cc23)CC1` [Example 337, (2S,4S)-4-fluoro-1-[2-[4-[(6-fluoro-4-quinolyl)amino]-1-piperidyl]acetyl]pyrrolidine-2-carbonitrile], the half-maximal inhibitory concentration (IC50) in assay [1] (setting [10]) came out at 0.0078 µM; in assay [2] (recombinant human DPP7), 0.571 µM; in assay [3] (recombinant human DPP8), 7.88 µM; in assay [4] (recombinant human DPP9), 2.29 µM; in assay [5] (recombinant human PREP), 2540 nM; in assay [6] (recombinant human DPP4), 8.18 µM.

Regarding `COc1ccc2c(C(=O)N[C@H]3CCN(CC(=O)N4CCC[C@H]4C#N)C3)coc2c1` [Example 54, N—((S)-1-(2-((S)-2-cyanopyrrolidin-1-yl)-2-oxoethyl)pyrrolidin-3-yl)-6-methoxybenzofuran-3-carboxamide], the IC50 in assay [1] (setting [7]) was 0.00848 µM; in assay [2] it was 2.39 µM; in assay [3] (setting [8]), 23.2 µM; in assay [4] (setting [9]), over 100 µM; in assay [5] (setting [7]), 5500 nM. For the same molecule, the inhibition at 1 µM in assay [6] amounted to 2%.

For the molecule `Cc1ccc(N[C@H]2CCN(CC(=O)N3CCC[C@H]3C#N)C2)c2cccnc12` [Example 242, (2S)-1-[2-[(3S)-3-[(8-methyl-5-quinolyl)amino]pyrrolidin-1-yl]acetyl]pyrrolidine-2-carbonitrile], the IC50 is 0.0017 µM in assay [1] (setting [10]); 1.7 µM in assay [2] (recombinant human DPP7); 11 µM in assay [3] (recombinant human DPP8); 19.3 µM in assay [4] (recombinant human DPP9); 8440 nM in assay [5] (recombinant human PREP); over 10 µM in assay [6] (recombinant human DPP4).

`N#C[C@@H]1C[C@@H]2C[C@@H]2N1C(=O)CN1CCC(Nc2cccc3ncccc23)CC1` [Example 115, (1S,3S,5S)-2-(2-(4-(quinolin-5-ylamino)piperidin-1-yl)acetyl)-2-azabicyclo[3.1.0]hexane-3-carbonitrile]: the IC50 in assay [1] (setting [7]) is 0.00564 µM; in assay [2] it was 5.74 µM; in assay [3] (setting [8]), 52.1 µM; in assay [4] (setting [9]), 45.1 µM; in assay [5] (setting [7]), over 100000 nM. The inhibition at 1 µM in assay [6] came out at 1.4%.

For the molecule `N#C[C@@H]1CCCN1C(=O)CN1CC[C@@H](Nc2cncc3ccccc23)C1` [Example 24, (S)-1-(2-((R)-3-(isoquinolin-4-ylamino)pyrrolidin-1-yl)acetyl)pyrrolidine-2-carbonitrile], the IC50 is 0.00212 µM in assay [1] (setting [7]); 0.524 µM in assay [2]; 77.3 µM in assay [3] (setting [8]); 68 µM in assay [4] (setting [9]); 5460 nM in assay [5] (setting [7]); over 1 µM in assay [6] (setting [9]).
